Source: patent publication US10993951B2, “Fosfomycin formulation for parenteral administration” (priority 2016, dated 2021)
Values after ≈ are worked out from the molar mass of the structure shown. Where two headings read alike, the source gives them in different places.

Key:
Format in all cases: cell-based
Escherichia coli AG 1215 = assay: MIC by tube dilution in microtiter plates, stored fosfomycin solution; details: read-out: minimal inhibitory concentration (MIC)
Text: (§1) The objective of the present investigation was to find out whether the antimicrobial activity of fosfomycin with a pH suitable for intravenous administration is maintained in a solvent suitable for intravenous use. For this, fosfomycin disodium (14.5 mmol sodium/g) and succinic acid were used to adjust the pH (0.025 grams of succinic acid per gram of fosfomycin).
(§2) A stock solution of 4 g of fosfomycin disodium and succinic acid (0.025 grams of succinic acid per gram of fosfomycin, corresponding to about 3 g of fosfomycin) in 10 ml distilled water was prepared and divided into 5 cryotubes at 2 ml each, and the solution was exposed at different temperatures as follows:
(§3) Aliquots of 2 ml of the sample were stored at −80° C., at refrigerator temperature (2-8° C.), at room temperature (20-25° C.), and at 45-65° C. until the test end. Another 2 ml of the stock solution were stored at refrigerator temperature (2-8° C.) and autoclaved before the tests at 125° C. for 30 minutes. After that, all samples were tested for their antimicrobioal activity.
(§4) To determine the antimicrobial activity of fosfomycin, the minimal inhibitory concentration (MIC) of the 4 mentioned bacteria strains was determined by a tube dilution method in microtiter plates using Mueller-Hinton broth. For the inoculation of the microtiter plates, the inoculum was adjusted to 1.5×104 germs/ml. The evaluation was made after 24 hours of incubation at 37° C.
(§5) Samples were taken, starting with 2,000 μg/ml test substance, diluted by a factor 2. Serial dilutions of 2,000 μg/ml to […] were prepared.

[1] = tested on: Staphylococcus aureus ATTC 49775; assay: as above; details: read-out: minimal inhibitory concentration (MIC)
Text: as §1, §2, §3, §4, §5

[2] = tested on: Staphylococcus aureus ATTC 33592; assay: as above; details: read-out: minimal inhibitory concentration (MIC)
Text: as §1, §2, §3, §4, §5

[3] = tested on: tested bacteria such as Staphylococcus and Escherichia; assay: Stability studies: antimicrobial activity kept on storage; details: aqueous solution with an acid; after repeated autoclaving at 125° C. and months of storage
Text: as §1, §2, §3
as §4, with “The evaluation was made after 24 hours of incubation at 37° C.” left out

[4] = tested on: Staphylococcus aureus ATTC 33592; assay: MIC by tube dilution in microtiter plates, stored fosfomycin solution; details: read-out: minimal inhibitory concentration (MIC); remark: listed apart in the source

MIC (Escherichia coli AG 1215; AG1215, 125 °C (refrigerator storage, autoclaved 30 minutes before tests), storage period 92 days): 125 µg/mL (≈ 905 µM)
MIC (Escherichia coli AG 1215; AG1215, 456 h, storage temp. 4-8 °C, storage period 19 days): 62.5 µg/mL (≈ 453 µM)
MIC (Escherichia coli AG 1215; AG1215, 456 h, storage temp. 20-25 °C, storage period 19 days): 125 µg/mL (≈ 905 µM)
MIC (Escherichia coli AG 1215; AG1215, 456 h, storage temp. 45-65 °C, storage period 19 days): 250 µg/mL (≈ 1810 µM)
MIC (Escherichia coli AG 1215; AG1215, 456 h, storage temp. −80 °C, storage period 19 days): 125 µg/mL (≈ 905 µM)
MIC (Escherichia coli AG 1215; AG1215, 648 h, storage temp. 20-25 °C, storage period 27 days): 31.2 µg/mL (≈ 226 µM)
MIC (Escherichia coli AG 1215; AG1215, 648 h, storage temp. 45-65 °C, storage period 27 days): 31.2 µg/mL (≈ 226 µM)
MIC (Escherichia coli AG 1215; AG1215, 648 h, storage temp. −80 °C, storage period 27 days): 62.5 µg/mL (≈ 453 µM)
MIC (Escherichia coli AG 1215; AG1215, storage temp. 4-8 °C, storage period 92 days): 62.5 µg/mL (≈ 453 µM)
MIC (Escherichia coli AG 1215; AG1215, storage temp. 20-25 °C, storage period 59 days): 31.2 µg/mL (≈ 226 µM)
MIC (Escherichia coli AG 1215; AG1215, storage temp. 20-25 °C, storage period 64 days): 31.2 µg/mL (≈ 226 µM)
MIC (Escherichia coli AG 1215; AG1215, storage temp. 20-25 °C, storage period 92 days): 125 µg/mL (≈ 905 µM)
MIC (Escherichia coli AG 1215; AG1215, storage temp. 45-65 °C, storage period 59 days): 62.5 µg/mL (≈ 453 µM)
MIC (Escherichia coli AG 1215; AG1215, storage temp. 45-65 °C, storage period 64 days): 62.5 µg/mL (≈ 453 µM)
MIC (Escherichia coli AG 1215; AG1215, storage temp. 45-65 °C, storage period 92 days): 125 µg/mL (≈ 905 µM)
MIC (Escherichia coli AG 1215; AG1215, storage temp. −80 °C, storage period 59 days): 15.6 µg/mL (≈ 113 µM)
MIC (Escherichia coli AG 1215; AG1215, storage temp. −80 °C, storage period 64 days): 62.5 µg/mL (≈ 453 µM)
MIC (Escherichia coli AG 1215; AG1215, storage temp. −80 °C, storage period 92 days): 62.5 µg/mL (≈ 453 µM)
MIC ([1]; ATTC49775, 0 h, storage temp. 20-25 °C, storage period 0 days): 3.9 µg/mL (≈ 28.2 µM)
MIC ([1]; ATTC49775, 0 h, storage temp. 45-65 °C, storage period 0 days): 7.8 µg/mL (≈ 56.5 µM)
MIC ([1]; ATTC49775, 0 h, storage temp. −80 °C, storage period 0 days): 7.8 µg/mL (≈ 56.5 µM)
MIC ([1]; ATTC49775, 125 °C (refrigerator storage, autoclaved 30 minutes before tests), storage period 0 days): 15.6 µg/mL (≈ 113 µM)
MIC ([1]; ATTC49775, 125 °C (refrigerator storage, autoclaved 30 minutes before tests), storage period 19 days): 7.8 µg/mL (≈ 56.5 µM)
MIC ([1]; ATTC49775, 125 °C (refrigerator storage, autoclaved 30 minutes before tests), storage period 31 days): 7.8 µg/mL (≈ 56.5 µM)
MIC ([1]; ATTC49775, 456 h, storage temp. 20-25 °C, storage period 19 days): 15.6 µg/mL (≈ 113 µM)
MIC ([1]; ATTC49775, 456 h, storage temp. 45-65 °C, storage period 19 days): 7.8 µg/mL (≈ 56.5 µM)
MIC ([1]; ATTC49775, 456 h, storage temp. −80 °C, storage period 19 days): 3.9 µg/mL (≈ 28.2 µM)
MIC ([1]; ATTC49775, storage temp. 20-25 °C, storage period 31 days): 15.6 µg/mL (≈ 113 µM)
MIC ([1]; ATTC49775, storage temp. 45-65 °C, storage period 31 days): 7.8 µg/mL (≈ 56.5 µM)
MIC ([1]; ATTC49775, storage temp. −80 °C, storage period 31 days): 3.9 µg/mL (≈ 28.2 µM)
MIC ([2]; ATTC33592, 0 h, storage temp. 20-25 °C, storage period 0 days): 7.8 µg/mL (≈ 56.5 µM)
MIC ([2]; ATTC33592, 0 h, storage temp. 45-65 °C, storage period 0 days): 15.6 µg/mL (≈ 113 µM)
MIC ([2]; ATTC33592, 0 h, storage temp. −80 °C, storage period 0 days): 15.6 µg/mL (≈ 113 µM)
MIC ([2]; ATTC33592, 125 °C (refrigerator storage, autoclaved 30 minutes before tests), storage period 0 days): 15.6 µg/mL (≈ 113 µM)
MIC ([2]; ATTC33592, 125 °C (refrigerator storage, autoclaved 30 minutes before tests), storage period 19 days): 31.2 µg/mL (≈ 226 µM)
MIC ([2]; ATTC33592, 125 °C (refrigerator storage, autoclaved 30 minutes before tests), storage period 31 days): 7.8 µg/mL (≈ 56.5 µM)
MIC ([2]; ATTC33592, 456 h, storage temp. 20-25 °C, storage period 19 days): 15.6 µg/mL (≈ 113 µM)
MIC ([2]; ATTC33592, 456 h, storage temp. 45-65 °C, storage period 19 days): 31.2 µg/mL (≈ 226 µM)
MIC ([2]; ATTC33592, 456 h, storage temp. −80 °C, storage period 19 days): 7.8 µg/mL (≈ 56.5 µM)
MIC ([2]; ATTC33592, storage temp. 20-25 °C, storage period 31 days): 7.8 µg/mL (≈ 56.5 µM)
MIC ([2]; ATTC33592, storage temp. 45-65 °C, storage period 31 days): 7.8 µg/mL (≈ 56.5 µM)
MIC ([2]; ATTC33592, storage temp. −80 °C, storage period 31 days): 7.8 µg/mL (≈ 56.5 µM)
MIC ([4]; ATTC33592, 0 h, storage temp. 4-8 °C, storage period 0 days): 15.6 µg/mL (≈ 113 µM)
MIC ([4]; ATTC33592, 456 h, storage temp. 4-8 °C, storage period 19 days): 7.8 µg/mL (≈ 56.5 µM)
MIC ([4]; ATTC33592, storage temp. 4-8 °C, storage period 31 days): 3.9 µg/mL (≈ 28.2 µM)
SMILES: C[C@@H]1O[C@@H]1P(=O)(O)O [Fosfomycin, fosfomycin]
effectiveness against the tested bacteria after storage [3]: effective
